Laboratory results taken from patent US20260130933A1, “PHARMACEUTICAL COMPOSITION FOR PREVENTION OR TREATMENT OF NEPHROPATHY AND/OR DIABETES MELLITUS, COMPRISING ENAVOGLIFLOZIN” (DAEWOONG PHARMACEUTICAL CO., LTD., priority 2022, published 2026).

Experiment: Example 1: phase 3 trial, enavogliflozin 0.3 mg once a day as monotherapy vs placebo for 24 weeks in patients with type 2 diabetes (HbA1c, FPG, C-peptide, body weight, lipids, blood pressure, HOMA, UACR, UGCR, adiponectin, leptin, safety)
Assay type: in vivo, human
Description: When a subject voluntarily gave written consent to participate in this clinical trial, a screening test was conducted. […] However, when the administration of a hypoglycemic agent was interrupted before the clinical trial Visit 1 (screening), at least an 8-week washout period, including the discontinuation period, was required, and during this period, a stable diet and exercise program was followed. Naïve patients were screened without a separate washout period, and the criteria for naïve patients were defined as patients who had not been administered hypoglycemic agents within 24 weeks prior to the date of obtaining written consent. […] In addition, they were instructed to maintain regular exercise and dietary control starting from 8 weeks prior to screening without changing their daily life patterns during the clinical trial period.

Compound: OC[C@H]1O[C@@H](c2cc(Cc3ccc(C4CC4)cc3)c(Cl)c3c2CCO3)[C@H](O)[C@@H](O)[C@@H]1O [Enavogliflozin, (2S,3R,4R,5S,6R)-2-(7-chloro-6 (4-cyclopropylbenzyl)-2,3-dihydrobenzofuran-4-yl)-6-(hydroxymethyl)tetrahydro-2H-pyran-3,4,5-triol]
- fasting C-peptide, Mean (SD) (week 6): 0.66 ng/mL
- systolic blood pressure change from baseline, LS mean (week 6): −5.38 mmHg
- systolic blood pressure change from baseline, Mean (week 6): −4.81 mmHg
- total cholesterol change from baseline, LS mean (week 6): 5.76 mg/dL
- total cholesterol change from baseline, Mean (week 6): 5.75 mg/dL
- total cholesterol, Mean (week 6): 166.11 mg/dL
- triglycerides change from baseline, LS mean (week 6): -5.05 mg/dL
- triglycerides change from baseline, Mean (week 6): -1.21 mg/dL
- triglycerides, Mean (week 6): 116.13 mg/dL
- FPG change from baseline, LS mean difference (week 6, vs placebo): -26.91 mg/dL
- HDL-C change from baseline, LS mean difference (week 6, vs placebo): 1.89 mg/dL
- HOMA-IR change from baseline, LS mean difference (week 6, vs placebo): −1.81
- HOMA-β change from baseline, LS mean difference (week 6, vs placebo): 3.30
- HbA1c change from baseline, LS mean difference (week 6, vs placebo): −0.52 % p
- LDL-C change from baseline, LS mean difference (week 6, vs placebo): 0.64 mg/dL
- Odds ratio for achieving HbA1c<6.5% (week 6, vs placebo): 3.29
- Odds ratio for achieving HbA1c<7% (week 6, vs placebo): 6.55
- Odds ratio for achieving therapeutic response (week 6, vs placebo): 12.84
- UACR change from baseline, LS mean difference (week 6, vs placebo): 7.96 g/kg
- UGCR change from baseline, LS mean difference (week 6, vs placebo): 52.97 mg/mg
- adiponectin change from baseline, LS mean difference (week 6, vs placebo): 0.26 µg/mL
- body weight change from baseline, LS mean difference (week 6, vs placebo): -1.45 kg
- diastolic blood pressure change from baseline, LS mean difference (week 6, vs placebo): −2.43 mmHg
- fasting C-peptide change from baseline, LS mean difference (week 6, vs placebo): -0.11 ng/mL
- leptin change from baseline, LS mean difference (week 6, vs placebo): -2.89 ng/mL
- systolic blood pressure change from baseline, LS mean difference (week 6, vs placebo): −4.07 mmHg
- total cholesterol change from baseline, LS mean difference (week 6, vs placebo): 1.95 mg/dL
- triglycerides change from baseline, LS mean difference (week 6, vs placebo): -17.69 mg/dL
- HbA1c change from baseline, LS mean difference (week 6, vs placebo, listed as enavogliflozin): -0.52 % p
- Body weight, Mean (week 12): 66.12 kg
- Diastolic blood pressure, Mean (week 12): 72.83 mmHg
- FPG change from baseline, LS mean (SE) (week 12): −30.66(2.93) mg/dL
- FPG change from baseline, Mean (SD) (week 12): −29.34(20.90) mg/dL
- FPG, Mean (SD) (week 12): 111.66(13.55) mg/dL
- HDL-C change from baseline, LS mean (week 12): 2.35 mg/dL
- HDL-C change from baseline, Mean (week 12): 2.22 mg/dL
- HDL-C, Mean (week 12): 54.14 mg/dL
- HbA1c change from baseline, LS mean (SE) (week 12): −0.84(0.07) % p
- HbA1c change from baseline, Mean (SD) (week 12): −0.80(0.55) % p
- HbA1c, Mean (SD) (week 12): 6.84(0.53) %
- LDL-C change from baseline, LS mean (week 12): -2.31 mg/dL
- LDL-C change from baseline, Mean (week 12): -0.09 mg/dL
- LDL-C, Mean (week 12): 95.38 mg/dL
- Subjects achieving HbA1c target of <6.5% (week 12): 22(26.83) %
- Subjects achieving HbA1c target of <7% (week 12): 54(65.85) %
- Subjects achieving therapeutic glycemic response (HbA1c change >0.5% or HbA1c<7%) (week 12): 70(85.37) %
- Systolic blood pressure, Mean (week 12): 122.06 mmHg
- body weight change from baseline, LS mean (week 12): -2.59 kg
- body weight change from baseline, Mean (week 12): -2.65 kg
- diastolic blood pressure change from baseline, LS mean (week 12): −3.82 mmHg
- diastolic blood pressure change from baseline, Mean (week 12): −3.40 mmHg
- fasting C-peptide, Mean (SD) (week 12): 0.64 ng/mL
- systolic blood pressure change from baseline, LS mean (week 12): −6.37 mmHg
- systolic blood pressure change from baseline, Mean (week 12): −5.78 mmHg
- total cholesterol change from baseline, LS mean (week 12): 4.75 mg/dL
- total cholesterol change from baseline, Mean (week 12): 5.99 mg/dL
- total cholesterol, Mean (week 12): 167.40 mg/dL
- triglycerides change from baseline, LS mean (week 12): 6.37 mg/dL
- triglycerides change from baseline, Mean (week 12): 2.90 mg/dL
- triglycerides, Mean (week 12): 120.34 mg/dL
- FPG change from baseline, LS mean difference (week 12, vs placebo): -32.26 mg/dL
- HDL-C change from baseline, LS mean difference (week 12, vs placebo): 2.36 mg/dL
- HOMA-IR change from baseline, LS mean difference (week 12, vs placebo): −1.72
- HOMA-β change from baseline, LS mean difference (week 12, vs placebo): 12.09
- HbA1c change from baseline, LS mean difference (week 12, vs placebo): −0.71 % p
- LDL-C change from baseline, LS mean difference (week 12, vs placebo): -6.00 mg/dL
- Odds ratio for achieving HbA1c<6.5% (week 12, vs placebo): 7.58
- Odds ratio for achieving HbA1c<7% (week 12, vs placebo): 6.53
- Odds ratio for achieving therapeutic response (week 12, vs placebo): 14.77
- UACR change from baseline, LS mean difference (week 12, vs placebo): -15.16 g/kg
- UGCR change from baseline, LS mean difference (week 12, vs placebo): 51.21 mg/mg
- adiponectin change from baseline, LS mean difference (week 12, vs placebo): 0.67 µg/mL
- body weight change from baseline, LS mean difference (week 12, vs placebo): -1.66 kg
- diastolic blood pressure change from baseline, LS mean difference (week 12, vs placebo): −2.33 mmHg
- fasting C-peptide change from baseline, LS mean difference (week 12, vs placebo): -0.12 ng/mL
- leptin change from baseline, LS mean difference (week 12, vs placebo): -3.17 ng/mL
- systolic blood pressure change from baseline, LS mean difference (week 12, vs placebo): −3.06 mmHg
- total cholesterol change from baseline, LS mean difference (week 12, vs placebo): -4.04 mg/dL
- triglycerides change from baseline, LS mean difference (week 12, vs placebo): -10.37 mg/dL
- Body weight, Mean (week 18): 65.32 kg
- Diastolic blood pressure, Mean (week 18): 72.60 mmHg
- FPG change from baseline, LS mean (SE) (week 18): −31.97(3.23) mg/dL
- FPG change from baseline, Mean (SD) (week 18): −30.52(22.34) mg/dL
- FPG, Mean (SD) (week 18): 110.48(14.49) mg/dL
- HDL-C change from baseline, LS mean (week 18): 4.18 mg/dL
- HDL-C change from baseline, Mean (week 18): 3.62 mg/dL
- HDL-C, Mean (week 18): 55.55 mg/dL
- HbA1c change from baseline, LS mean (SE) (week 18): −0.81(0.09) % p
- HbA1c change from baseline, Mean (SD) (week 18): −0.77(0.67) % p
